Assay results taken from patent US11103564B2, “Compositions for the inhibition of Giardia lamblia” (INSTITUT NATIONAL DE LA RECHERCHE AGRONOMIQUE, priority 2014, dated 2021).
Like-named read-outs stand apart in the source and are kept apart here.

Experiments:
[1] = tested on: G. lamblia trophozoites; test: In vitro G. lamblia growth inhibition assay; assay type: cell-based, Giardia lamblia; conditions: for IC50: KM-FCS; for inhibitory activity on G. lamblia growth: KM-FCS culture medium, without BSH
[2] = tested on: Giardia trophozoite cultures; test: Screening of lactobacilli strain supernatants for G. lamblia growth inhibition; assay type: cell-based, Giardia lamblia; conditions: supernatant, 24 h at 37° C., with bovine bile 0.6 g/L
Protocol: The inhibitory effect on G. lamblia growth of different lactobacilli strains was screened (cf. table 5). Bacterial supernatant was co-incubated for 24 h at 37° C. with Giardia trophozoite cultures (triplicates), with or without bovine bile (0.6 g/L). […] Table 5 indicates the corresponding internal and official references of the bacterial strains, and bibliographic references.

[3] = tested on: G. lamblia trophozoites; test: Effect of recombinant LjLa1 BSH on Giardia trophozoites cultures; assay type: cell-based, Giardia lamblia
[4] = assay type: biochemical
[5] = BSH activity on taurodeoxycholic / glycodeoxycholic LB agar; assay type: biochemical; conditions: taurodeoxycholic (0.3%) and glycodeoxycholic (0.3%) LB agar, 48 h at 37° C.
[6] = tested on: G. lamblia WB clone C6; test: In vivo effect of BSH-47 against G. lamblia in neonatal mice; conditions: daily gavage day 10 to 15, vs PBS
Protocol: FIG. 13: G. lamblia trophozoites count in the small intestine. Mice were challenged with the trophozoites of G. lamblia WB clone C6 (10^5 trophozoites per animal) at day 10 Animals were treated either with PBS or BSH-47 at 1 μg/ml (0.5 μg per mice), 10 μg/ml (5 μg per mice) or 100 μg/ml (50μg/mice) by daily intragastric gavage until day 15 (n=10 to 11/group). Values are mean±SEM; p<0.05.
Solutions of recombinant BSH-47 solutions (1 μg/ml, 10 μg/ml and 100 μg/ml diluted in NaHCO3 16.4%) were thawed and daily administered by intragastric gavage to neonatal mice (dose were respectively […] per mice) from day 10 to day 15 (day of sacrifice). Control animals received PBS instead of BSH.

[7] = Giardia duodenalis, absence of LjLa1sn, trophozoites growth inhibition, read-out: IC50 +/− SD, with culture medium only
[8] = Giardia duodenalis, presence of LjLa1sn, read-out: IC50 +/− SD, with bacterial spent culture medium
[9] = absence of LjLa1sn, trophozoites growth inhibition, read-out: IC50 +/− SD, with culture medium only
[10] = presence of LjLa1sn, read-out: IC50 +/− SD, with bacterial spent culture medium
[11] = 0.0001 μg/ml to 10 μg/ml, presence of bovine bile (0.06 g/L)

`CC(=O)O[C@H]1C[C@@]2(C)[C@@H](C[C@@H](O)[C@H]3[C@@]4(C)CC[C@@H](O)[C@@H](C)[C@@H]4CC[C@@]32C)/C1=C(\CCC=C(C)C)C(=O)O` [FA, Fusidic acid] gave an IC50 [1, 7] of 26 µM.

With `C[C@H](CCC(=O)NCCS(=O)(=O)O)[C@H]1CC[C@H]2[C@@H]3[C@H](O)C[C@@H]4C[C@H](O)CC[C@]4(C)[C@H]3CC[C@]12C` [TCDC, Taurochenodesoxycholate] the IC50 [1, 7] was greater than 400 µM, the IC50 [1, 8] was 115 µM and the “inhibitory activity on G. lamblia growth” value [1] was “no inhibitory activity”.

In the case of `C[C@H](CCC(=O)NCC(=O)O)[C@H]1CC[C@H]2[C@@H]3[C@H](O)C[C@@H]4C[C@H](O)CC[C@]4(C)[C@H]3CC[C@]12C` [GCDC, Glycochenodesoxycholate], the IC50 [1, 7] is reported as greater than 400 µM, the IC50 [1, 8] is reported as 110 µM and the “inhibitory activity on G. lamblia growth” value [1] is reported as “no inhibitory activity”.

In the case of `C[C@H](CCC(=O)NCCS(=O)(=O)O)[C@H]1CC[C@H]2[C@@H]3CC[C@@H]4C[C@H](O)CC[C@]4(C)[C@H]3C[C@H](O)[C@]12C` [TDC, Taurodesoxycholate], the “inhibitory activity on G. lamblia growth” value [1] is reported as “no inhibitory activity”, the IC50 [1, 9] is reported as greater than 400 µM and the IC50 [1, 10] is reported as 79 µM.

With Lactobacillus reuteri the “inhibitory effect on G. lamblia growth” value [2] was “potent inhibitors”.

Molecule `C[C@H](CCC(=O)O)[C@H]1CC[C@H]2[C@@H]3[C@H](O)C[C@@H]4C[C@H](O)CC[C@]4(C)[C@H]3C[C@H](O)[C@]12C` [C, Cholate] has an IC50 [1, 9] greater than 400 µM and an IC50 [1, 10] greater than 400 µM.

With Lactobacillus acidophilus the “inhibitory effect on G. lamblia growth” value [2] was “potent inhibitors”.

In the case of `C[C@H](CCC(=O)NCC(=O)O)[C@H]1CC[C@H]2[C@@H]3CC[C@@H]4C[C@H](O)CC[C@]4(C)[C@H]3C[C@H](O)[C@]12C` [GDC, Glycodesoxycholate], the IC50 [1, 7] is reported as greater than 400 µM, the IC50 [1, 8] is reported as 104 µM and the “inhibitory activity on G. lamblia growth” value [1] is reported as “no inhibitory activity”.

`C[C@H](CCC(=O)O)[C@H]1CC[C@H]2[C@@H]3[C@H](O)C[C@@H]4C[C@H](O)CC[C@]4(C)[C@H]3CC[C@]12C` [CDC, Chenodesoxycholate] gave an IC50 [1, 7] of 147 µM and an IC50 [1, 8] of 118 µM.

`C[C@H](CCC(=O)NCC(=O)O)[C@H]1CC[C@H]2[C@@H]3[C@H](O)C[C@@H]4C[C@H](O)CC[C@]4(C)[C@H]3C[C@H](O)[C@]12C` [GC, Glycocholate] gave an IC50 [1, 7] greater than 400 µM and an IC50 [1, 8] greater than 400 µM.

In the case of Desoxycholate [DC], the IC50 [1, 9] is reported as 132 µM and the IC50 [1, 10] is reported as 117 µM.

B1: BSH-47: recombinant L. johnsonii La1 bile-salt hydrolase LJ1147 produced in E. coli, His-Tag purified (protein)
chain: MCTSILYSPKDNYFGRNLDYEIAYGQKVVITPRNYQLNYRHLPTQDTHYAMIGVSVVANDYPLYCDAINEKGLGIAGLNFTGPGKYFSVDESKKNVTSFELIPYLLSNCETIEDVKKLLSETNITDESFSKDLPVTTLHWLMGDKSGKSIVIESTETGLHVYDNPVNTLTNNPVFPAQVETLANFASVSPAQPKNTLVPNADINLYSRGLGTHHLPGGTDSNSRFIKASFVLAHSPKGNDEVENVTNFFHVLHSVEQAKGTDEVEDNVFEFTMYSDCMNLDKGILYFTTYDNNQINAVDMNNEDLGTSDLITYELFKDQAIKFEN
modifications: His-tag; Lactobacillus johnsonii BSH-47
notes: recombinant L. johnsonii La1 bile-salt hydrolase LJ1147 produced in E. coli, His-Tag purified
In the case of B1, the “inhibitory effect on G. lamblia trophozoites” value [3, 11] is reported as “strong inhibitory effects”, the “effect on Giardia trophozoites cultures” value ([3]; 0.96 U, with bovine bile (0.06 g/L)) is reported as “exhibits an inhibiting effect” and the “inhibitory effect on G. lamblia trophozoites” value ([3]; without bovine bile) is reported as “no inhibitory effect”. For the same molecule, the Specific activity ([4]; glycine release) was 0.066 μmole of glycine/5 min at 37°, the Specific activity ([4]; taurine release) was 0.717 μmole taurine/5 min at 37° C./ and the “substrate specificity on agar” value [5] was “taurospecific”. For the same molecule, the “parasite load in the small intestine” value ([6]; 100 μg/ml group) was “significant reduction” and the “trophozoites load in the small intestine” value ([6]; all groups: 1, 10 and 100 μg/ml) was “reduction in trophozoites load”.

B2: BSH-56: recombinant L. johnsonii La1 bile-salt hydrolase LJ0056 produced as BSH-47 (protein)
chain: MCTGLRFTDDQGNLYFGRNLDVGQDYGEGVIITPRNYPLPYKFLDNTTTKKAVIGMGIVVDGYPSYFDCYNEDGLGIAGLNFPHFAKFSDGPIDGKINLASYEIMLWVTQNFTHVSEVKEALKNVNLVNEAINTSFAVAPLHWIISDSDEAIIVEVSKQYGMKVFDDKVGVLTNSPDFNWHLTNLGNYTGLNPHDATAQSWNGQKVAPWGVGTGSLGLPGDSIPADRFVKAAYLNVNYPTAKGEKANVAKFFNILKSVAMIKGSVVNDQGKDEYTVYTACYSSGSKTYYCNFEDDFELKTYKLDDHTMNSTSLVTY
modifications: Lactobacillus johnsonii BSH-56
For B2, the “inhibitory effect on G. lamblia trophozoites” value [3, 11] was “strong inhibitory effects”, the “inhibitory effect on G. lamblia trophozoites” value ([3]; without bovine bile) was “no inhibitory effect” and the Specific activity ([4]; glycine release) was 0.536 μmole of glycine/5 min at 37°. The Specific activity ([4]; taurine release) was 2.604 μmole taurine/5 min at 37° C./.
